In US20100204144A1, “USE OF THE PEPTIDES MAIPPKKNQDK (COW KAPPA CASEIN 106-116) AND/OR YGFQNA (SERORPHIN) AS THERAPEUTIC AGENTS” (priority 2007, published 2010):
Where no end group is shown, it is not given here.

What was measured:
HIV-1IIIB = test: HIV-1 antiviral assay in CEM-SS cells (MTS read-out of virus cell killing)
HUVEC = test: Endothelial tube formation assay; assay type: cell-based, human; conditions: 10 micrograms per ml, 20 hours
Description: Positive control was vehicle only.

[1] = test system: Human Peripheral Blood Mononuclear Cells (PBMC), B cell proliferation; test: B cell proliferation assay (SAC plus Interleukin-2, 3H-thymidine); assay type: cell-based; conditions: 10 micrograms per ml; SAC plus IL-2 stimulated PBMC
Procedure: Human Peripheral Blood Mononuclear Cells (PBMC) were obtained from normal human donors. The B cell proliferation was induced by stimulation of the cells with the B cell mitogen Staphylococcus aureus Cowans I (SAC) plus Interleukin-2, either in the absence (positive proliferation control), or in the presence of test peptides—10 micrograms per ml—to examine their effects on the B cell response. 10^5/well PBMC were plated in 96-well microtiter plates and assayed in duplicate with the peptides. […] At the end of incubation time, the plates were harvested and the cells counted by liquid scintillation for the incorporation of ^3H-thymidine as a measure of B cell proliferation.

[2] = test system: Primary Human endothelial cells (HUVEC); test: Endothelial cell migration assay; assay type: cell-based; conditions: 10 micrograms per ml, 22 hours
Procedure: Thereafter, designated concentration of testing peptides -10 micrograms per ml—was added in duplicate wells.

[3] = test system: cyclic AMP generation in human peripheral blood mononuclear cells (PBMC); test: cAMP induction assay (ELISA); assay type: cell-based; conditions: 10 min at 37° C.
Procedure: The cAMP kit was used as an immunoassay for the quantitative determination of cyclic AMP generation in human peripheral blood mononuclear cells (PBMC). PBMC were placed in 96-well microtitier plates (50 microliters of cells at 4×10^6/ml) and 50 microliters of medium alone (background control), forskolin (cAMP positive control; 50 micrograms per ml), or test peptides were added. Plates were mixed and incubated for 10 min at 37° C. and the cells were lysed by the addition of 50 microliters of 3% perchloric acid. NaOH was added to neutralize the samples. Plates were centrifuged for 15 min at 2500 rpm and the supernatants removed. The supernatants (diluted 2-fold in assay buffer) were then assayed for the levels of cAMP by ELISA.

[4] = test system: IL-2, IL-4, IL-5, IFN-γ and TNF-α protein levels of spleen cells; test: Th1/Th2 cytokine profiling assay (Ovalbumin-restimulated spleen cells, CBA kit); assay type: cell-based, Balb/c mice; conditions: 10 micrograms per ml; Ovalbumin restimulation, 72 hours
Description: The Balb/c mice (originated in 1923, it is a popular strain and is used in many different research disciplines. Also classified as an inbred from the production of 20 or more successive brother-sister matings, the Balb/c mouse is albino and small in size) were immunized on Days 1, 15, and 29 with Ovalbumin (Ovalbumin is the main protein found in egg white, commonly used to stimulate an immunological reaction in test animals) in PBS (5 micrograms/injection). On day 50, spleens of the mice were harvested (3 weeks after last boost with Ovalbumin). […] Thereafter, additional Ovalbumin was added to the cells at 10 micrograms/ml for in vitro restimulation of the cells. 72 hours later, cell supernatants were harvested and assayed using the Becton Dickinson Mouse Th1/Th2 Cytokine CBA Kit. This kit can be used to measure Interleukin-2 (IL-2), Interleukin-4 (IL-4), Interleukin-5 (IL-5), Interferon-γ (IFN-γ), and Tumor Necrosis Factor-α (TNF-α) protein levels in a single sample.

[5] = test system: hepatitis B virus (HBV) ayw strain; test: HBV assay in HepG2-2.2.15 cells (secreted HBV DNA, TaqMan PCR); assay type: cell-based; conditions: 10 micrograms per ml, six days, HBV DNA in supernatant
Description: HepG2-2.2.15 is a stable cell line containing the hepatitis B virus (HBV) ayw strain genome (ATCC Cat. No. CRL-11997). Antiviral compounds blocking any late step of viral replication such as transcription, translation, pregenome encapsidation, reverse transcription, particle assembly and release can be identified and characterized using this cell line. In this assay, an active compound will reduce the production of secreted HBV from cells, measured by utilizing real time quantitative PCR (TaqMan) assay to directly and accurately measure HBV DNA copies.
HepG2-2.2.15 cells were plated in 96-well microtiter plates. After 16-24 hours the confluent monolayer of HepG2-2.2.15 cells was washed and the medium was replaced with complete medium containing test peptides—10 micrograms per ml—in duplicate. […] Six days following the initial administration of the peptides, the cell culture supernatants was collected, treated with pronase and DNAse and then used in a real-time quantitative TaqMan PCR assay. The PCR-amplified HBV DNA was detected in real-time by monitoring increases in fluorescence signals that result from the exonucleolytic degradation of a quenched fluorescence probe molecule that hybridizes to the amplified HBV DNA. […] Antiviral activity was calculated from the reduction in HBV DNA levels (% virus control). […]

Compound | antiviral activity of positive control compounds (HIV-1) (HIV-1IIIB) | inhibition of the tube formation of endothelial cells (HUVEC) [%] | inhibition of the proliferation of specifically stimulated human B-cells [1] [%] | induction of the migration of human endothelial cells [2] [%] | induction of cAMP formation in human peripheral blood cells [3] [%] | IFNγ spleen cells; TH1 response (% of control) [4] | IL-2 spleen cells (% of control) [4] | IL-4 spleen cells; TH2 response (% of control) [4] | IL-5 spleen cells; TH2 response (% of control) [4] | TNF-a spleen cells; TH1 response (% of control) [4] | inhibition of HBV replication as compared to the virus control infection [5] [%]
CC(C)(C)NC(=O)[C@@H]1CN(Cc2cccnc2)CCN1C[C@@H](O)C[C@@H](Cc1ccccc1)C(=O)N[C@H]1c2ccccc2C[C@H]1O [indinavir] | expected levels of antiviral activity | – | – | – | – | – | – | – | – | – | –
Cc1cn([C@H]2C[C@H](N=[N+]=[N-])[C@@H](CO)O2)c(=O)[nH]c1=O [AZT] | expected levels of antiviral activity | – | – | – | – | – | – | – | – | – | –
Met-Ala-Ile-Pro-Pro-Lys-Lys-Asn-Gln-Asp-Lys-OH (MAIPPKKNQDK-OH) [peptide 1] | – | 23 | 21.2 | 22 | 5.3 | 63.4 % of control | 0.0 % of control | 0.0 % of control | 57.1 % of control | 74.9 % of control | 29.4
Tyr-Gly-Phe-Gln-Asn-Ala-OH (YGFQNA-OH) [peptide 2] | – | 21 | 7.1 | 26 | 1.8 | 48.2 % of control | 0.0 % of control | 0.0 % of control | 42.2 % of control | 81.4 % of control | 35.7
